{"source": "patent US8092833B2", "about": "“Compositions containing inclusion complexes” (California Institute of Technology, priority 2000, dated 2012)", "key": {"[1]": {"test_system": "HUH-7 cells", "assay": "FITC-Oligo uptake by HUH-7 cells after post-complexation pegylation, FACS (Example 41)", "format": "cell-based", "settings": "3+/− charge ratio, 1:1 PEG to cyclodextrin, 15 minute incubation", "procedure": "Step 1: Transfection mixtures were prepared as follows: An equal volume of cationic, 12 was added to 3 μg of FITC-Oligos (0.1 μg/μL in water) at a 3+/−charge ratio of polymer to DNA. To the complexes was added free PEG or Ad-PEG5000 (as prepared in Example 40) at a 1:1 PEG to cyclodextrin ratio.\nStep 2. HUH-7 cells were plated at 3×10^5 cells/well in 6 well plates and maintained in 4 mLs of DMEM+10% FBS+Antibiotic/Antimycotic for 24 hours. After 24 hours, the cells were washed with PBS and 1 mL of Optimem containing the transfection mixtures of Step 1 was added to the cells. After a 15 minute incubation, the transfection media was removed, the cells were washed with PBS and 1 mL of Optimem was added to each well. The cells were incubated for another 30 minutes at 37° C. The cells were then washed with Cell Scrub Buffer (Gene Therapy Systems) to remove surface-associated complexes and PBS and then detached from the wells by trypsin treatment. The cells were then prepared and analyzed by FACS analysis for FITC-Oligo uptake. The modification of the complexes by Ad-PEG5000 decreases uptake of the FITC-Oligo/polymer complexes."}, "[2]": {"test_system": "BHK-21 cells", "assay": "Toxicity of GALA / GALA-Ad compositions by total protein of cell lysates (Example 35)", "format": "cell-based", "settings": "peptide added to 12/pGL-CV3 5+/−, 48 hours after transfection", "procedure": "The toxicity of GALA and GALA-Ad modified compositions was determined by measuring the protein concentrations of the cell lysates obtained in the transfection experiments. BHK-21 cells were transfected with 1 μg of pGL-CV3 complexed with 12 at 5+/−charge ratio. Prior to transfection, various ratios of GALA and GALA-Ad were added to the complexes. Cell survival for transfections in the presence of GALA (solid bars) and GALA-Ad (white bars) was determined by assaying for total protein concentrations 48 hours after transfection and normalizing each sample with protein levels for untransfected cells. The protein concentrations are reported as the mean±SD of three replicates were averaged and divided by the average protein concentration of cells transfected with 12/pGL-CV3 compositions alone and reported as fraction cell survival (FIG. 7)."}, "[3]": {"test_system": "HepG2 cells", "assay": "Galactose-mediated luciferase transfection of HepG2 hepatoma cells (Example 49)", "format": "cell-based", "settings": "for transfection of HepG2 cells: 12/pCMV-Luc, 2 CD:1 PEG", "procedure": "HepG2 cells were plated in 24-well plates at 50,000 cells/well. 1 μg of pCMV-Luc was contacted with an equal volume of 12 and modified as indicated below. Modification with PEG-containing complexing agents was done at a 2:1 CD:PEG ratio, where CD represents the cyclodextrins in 12.\n200 μL of Optimem was added to each transfection mixture and transferred to each well of cells. 4 hours after transfection, 800 μL of complete media was added to each well. The media was removed, cells washed with PBS, and 1 mL of complete media added to each well 24 hours after transfection. 48 hours after transfection cells were washed with PBS, lysed and analyzed for luciferase activity. The described transfection procedure was also executed in the presence of 1 mM glucose or 1 mM galactose as a competitive inhibitor."}, "[4]": {"assay": "Zeta potential of particulate composites modified with PEG-peptide-Ad agents (Example 49)", "format": "physicochemical", "settings": "12/pCMV-Luc, 2 CD:1 PEG"}, "[5]": {"assay": "Zeta potential of Tf-modified polyplexes (Example 58)", "format": "physicochemical", "settings": "12/DNA 3+/−", "procedure": "An equivolume aliquot of 12 was added to an aliquot of plasmid DNA ([…], 0.1 mg/mL in water) at a 3+/−charge ratio to form the particulate composite. Holo-transferrin or holo-Tf-PEG-Ad (17 mg/mL in water) was then added to the particulate composite. The particles were diluted by the addition of 1.2 mL of water and zeta potential determined by measurements on a ZetaPals dynamic light scattering instrument (Brookhaven Instruments). The unmodified holo-transferrin associates with the particulate composites by electrostatic interactions. […] The holo-Transferrin-PEG-Ad (designated Tf-PEG-Ad in FIG. 25) is likely to associate to the particulate composites by both electrostatic and inclusion compound interactions. Therefore, there is a higher association of holo-Tf-PEG-Ad with the particles, as evidenced by the continued decrease in zeta potential of the modified particles with higher concentrations of holo-Tf-PEG-Ad. At 2 nmol Tf/μg, particulate composites modified with holo-Tf-PEG-Ad are negatively charged (zeta potential ˜−7 mV)."}}, "note": "Where a SMILES comes first, the peptide text is derived from it. The star is where a group is joined. Adamantane1carbonyl = O=C(C12CC3CC(CC(C3)C1)C2)*; {FITC} = fluorescein (FITC) label; Ad = adamantane"}
{"compound": "5′-FITC-ACT GCT TAC CAG GGA TTTCAG TGC A-3′ (DNA ACTGCTTACCAGGGATTTCAGTGCA; DNA, 5' {FITC}, backbone and methylation of C not given here) [FITC-Oligo]", "values": [{"measurement": "Percent Transfected", "setting": "[1]", "value": 0, "unit": "%"}]}
{"compound": "CC(C)C[C@H](NC(=O)[C@H](C)NC(=O)[C@H](CCC(=O)O)NC(=O)[C@H](CC(C)C)NC(=O)[C@H](C)NC(=O)[C@H](CCC(=O)O)NC(=O)[C@H](C)NC(=O)[C@H](CC(C)C)NC(=O)[C@H](C)NC(=O)[C@H](CCC(=O)O)NC(=O)[C@H](C)NC(=O)[C@H](CC(C)C)NC(=O)[C@H](Cc1c[nH]cn1)NC(=O)[C@H](CCC(=O)O)NC(=O)[C@H](C)NC(=O)[C@H](CC(C)C)NC(=O)[C@H](C)NC(=O)[C@H](CCC(=O)O)NC(=O)[C@H](C)NC(=O)[C@H](CC(C)C)NC(=O)[C@H](C)NC(=O)[C@H](CCC(=O)O)NC(=O)[C@H](C)NC(=O)[C@H](CC(C)C)NC(=O)[C@H](C)NC(=O)[C@H](C)NC(=O)[C@H](CCC(=O)O)NC(=O)[C@@H](N)Cc1c[nH]c2ccccc12)C(=O)N[C@@H](C)C(=O)N[C@@H](C)C(=O)O", "note": "[GALA, WEAALAEALAEALAEHLAEALAEALEALAA, reference compound] (H-WEAALAEALAEALAEHLAEALAEALEALAA-OH)", "values": [{"measurement": "toxicity to BHK-21 cells (fraction cell survival)", "setting": "[2]", "value": "no observable toxicity"}]}
{"compound": "CC(C)C[C@H](NC(=O)[C@H](C)NC(=O)[C@H](CCC(=O)O)NC(=O)[C@H](CC(C)C)NC(=O)[C@H](C)NC(=O)[C@H](CCC(=O)O)NC(=O)[C@H](C)NC(=O)[C@H](CC(C)C)NC(=O)[C@H](C)NC(=O)[C@H](CCC(=O)O)NC(=O)[C@H](C)NC(=O)[C@H](CC(C)C)NC(=O)[C@H](Cc1c[nH]cn1)NC(=O)[C@H](CCC(=O)O)NC(=O)[C@H](C)NC(=O)[C@H](CC(C)C)NC(=O)[C@H](C)NC(=O)[C@H](CCC(=O)O)NC(=O)[C@H](C)NC(=O)[C@H](CC(C)C)NC(=O)[C@H](C)NC(=O)[C@H](CCC(=O)O)NC(=O)[C@H](C)NC(=O)[C@H](CC(C)C)NC(=O)[C@H](C)NC(=O)[C@H](C)NC(=O)[C@H](CCC(=O)O)NC(=O)[C@H](Cc1c[nH]c2ccccc12)NC(=O)C12CC3CC(CC(C3)C1)C2)C(=O)N[C@@H](C)C(=O)N[C@@H](C)C(=O)O", "note": "[GALA-Ad] (Adamantane1carbonyl-WEAALAEALAEALAEHLAEALAEALEALAA-OH)", "values": [{"measurement": "toxicity to BHK-21 cells (fraction cell survival)", "setting": "[2]", "value": "no observable toxicity"}]}
{"compound": "Galactose-PEG3400-CAEAEAEAE-Ad [Gal-PEG-Pep-Ad]", "values": [{"measurement": "transfection in the presence of free galactose", "setting": "[3]; 1 mM galactose as competitive inhibitor", "value": "inhibited"}, {"measurement": "transfection of HepG2 cells", "setting": "[3]", "value": "enhanced transfection"}]}
{"compound": "Glucose-PEG3400-CAEAEAEAE-Ad [Glu-PEG-Pep-Ad]", "values": [{"measurement": "transfection of HepG2 cells", "setting": "[3]", "value": "do not readily transfect cells"}]}
{"compound": "PEG5000-CAEAEAEAE-Ad [PEG-Pep-Ad]", "values": [{"measurement": "transfection of HepG2 cells", "setting": "[3]", "value": "do not readily transfect cells"}, {"measurement": "zeta potential (sign)", "setting": "[4]", "value": "negative"}]}
{"compound": "Tf-PEG-Ad: human transferrin coupled via lysine groups to Vinylsulfone-PEG3400-Ad", "values": [{"measurement": "zeta potential", "setting": "[5]; 2 nmol Tf/μg", "value": "~−7", "unit": "mV"}]}
{"compound": "holo-transferrin: iron-loaded unmodified transferrin", "values": [{"measurement": "particle charge", "setting": "[5]; 2 nmol Tf/μg DNA", "value": "approach neutrality"}]}
